# Measurements as given in patent US20060069132A1, “Azolecarboxamide herbicides” (priority 2004, published 2006).
# Tests used:
# [1] = tested on: giant foxtail; experiment: Test A pre-/postemergence herbicide test; format: in vivo, Setaria faberi
# Method in brief: (§1)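 Pre: seeded sandy loam, directed soil spray, compound in non-phytotoxic solvent + surfactant. Post: 1–2-leaf plants (2–10 cm), sprayed to runoff. Greenhouse ~10 d; visual injury vs untreated, 0–100 scale.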
# [2] = tested on: redroot pigweed; experiment: Test A pre-/postemergence herbicide test; format: in vivo, Amaranthus retroflexus
# Method in brief: as §1
# [3] = tested on: bermudagrass; experiment: Test C pre-/postemergence herbicide test; format: in vivo, Cynodon dactylon; settings: for Plant response rating, Bermudagrass / Plant response rating (0 = no effect, 100 = complete control), Bermudagrass: preemergence; for Bermudagrass plant response rating: Preemergence, 500 g ai/ha
# Method in brief: (§2)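 Visual injury scores run from 0 (no effect) to 100 (complete control), assessed relative to untreated controls 12 to 14 days after treatment in the greenhouse. Chemicals were formulated in a non-phytotoxic solvent mixture with surfactant and applied to soil after planting or to emerged plants at the 1- to 4-leaf stage.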
# [4] = tested on: large crabgrass; experiment: Test C pre-/postemergence herbicide test; format: in vivo, Digitaria sanguinalis; settings: for Plant response rating, Crabgrass, Large / Plant response rating (0 = no effect, 100 = complete control), Crabgrass, Large: preemergence; for Crabgrass, Large plant response rating: Preemergence, 500 g ai/ha, scale 0 to 100, 0 no effect, 100 complete control
# Method in brief: as §2
# [5] = tested on: woolly cupgrass; experiment: Test C pre-/postemergence herbicide test; format: in vivo, Eriochloa villosa; settings: for Plant response rating, Cupgrass, Woolly / Plant response rating (0 = no effect, 100 = complete control), Cupgrass, Woolly: preemergence; for Cupgrass, Woolly plant response rating: Preemergence, 500 g ai/ha, scale 0 to 100, 0 no effect, 100 complete control
# Method in brief: as §2
# [6] = tested on: giant foxtail; experiment: Test C pre-/postemergence herbicide test; format: in vivo, Setaria faberi; settings: for Plant response rating, Foxtail, Giant / Plant response rating (0 = no effect, 100 = complete control), Foxtail, Giant: preemergence; for Foxtail, Giant plant response rating: Preemergence, 500 g ai/ha, scale 0 to 100, 0 no effect, 100 complete control
# Method in brief: as §2
# [7] = tested on: goosegrass; experiment: Test C pre-/postemergence herbicide test; format: in vivo, Eleusine indica; settings: for Plant response rating, Goosegrass / Plant response rating (0 = no effect, 100 = complete control), Goosegrass: preemergence; for Goosegrass plant response rating: Preemergence, 500 g ai/ha, scale 0 to 100, 0 no effect, 100 complete control
# Method in brief: as §2
# [8] = tested on: pigweed; experiment: Test C pre-/postemergence herbicide test; format: in vivo, Amaranthus retroflexus; settings: for Plant response rating, Pigweed / Plant response rating (0 = no effect, 100 = complete control), Pigweed: preemergence; for Pigweed plant response rating: Preemergence, 500 g ai/ha, scale 0 to 100, 0 no effect, 100 complete control
# Method in brief: as §2
# [9] = tested on: ducksalad; experiment: Test C flooded paddy test; format: in vivo, Heteranthera limosa; settings: for Plant response rating, Ducksalad: 500 g ai/ha, visual rating after 12 to 14 days
# [10] = Postemergence, 500 g ai/ha, 0 to 100 scale, 0 no effect, 100 complete control
# [11] = Postemergence, 2000 g ai/ha, 0 to 100 scale, 0 no effect, 100 complete control
# [12] = Preemergence, 2000 g ai/ha, visual rating, 0 to 100 scale (0 no effect, 100 complete control)
# [13] = preemergence, 500 g ai/ha, visual injury, 0 to 100 scale (0 no effect, 100 complete control)
# [14] = 125 g ai/ha, scale 0 (no effect) to 100 (complete control), visual, 12 to 14 days
# [15] = scale 0 to 100, 0 no effect, 100 complete control
# [16] = 62 g ai/ha, scale 0 to 100 (0 no effect, 100 complete control)
# [17] = 250 g ai/ha, scale of 0 to 100, 0 is no effect, 100 is complete control
# [18] = scale 0 to 100 (0 no effect, 100 complete control)
# [19] = Preemergence, 500 g ai/ha, visual rating, 0 to 100 scale (0 no effect, 100 complete control)
# [20] = Preemergence, 2000 g ai/ha, 0 to 100 scale, 0 no effect, 100 complete control
# [21] = 250 g ai/ha, scale 0 to 100 (0 no effect, 100 complete control), visual, 12 to 14 days
# [22] = 125 g ai/ha, scale of 0 to 100, 0 is no effect, 100 is complete control
smiles,measurement,setting,value
C=CCNC(=O)c1cccc(NC(=O)c2sc(C(C)(C)C)nc2CC)c1 [Compound 207],"Foxtail, Giant plant response rating",[1]; [10],10
same,"Plant response rating, Foxtail, Giant",[1]; [11],50
same,"Foxtail, Giant plant response rating",[1]; [12],90
same,"Foxtail, Giant plant response rating",[1]; [13],75
same,Pigweed plant response rating,[2]; [10],30
same,"Plant response rating, Pigweed",[2]; [11],45
same,Pigweed plant response rating,[2]; [12],100
same,Pigweed plant response rating,[2]; [13],100
same,"Plant response rating, Bermudagrass","[3]; 62 g ai/ha, scale 0 to 100, 0 no effect, 100 complete control",50
same,"Plant response rating, Bermudagrass",[3]; [14],80
same,"Plant response rating, Bermudagrass","[3]; 250 g ai/ha, scale 0-100",100
same,Bermudagrass plant response rating,[3]; [15],100
same,"Plant response rating, Crabgrass, Large","[4]; 62 g ai/ha, scale 0 to 100",80
same,"Plant response rating, Crabgrass, Large",[4]; [14],90
same,"Plant response rating, Crabgrass, Large","[4]; 250 g ai/ha, scale 0-100",100
same,"Crabgrass, Large plant response rating",[4],100
same,"Plant response rating, Cupgrass, Woolly","[5]; 62 g ai/ha, scale 0 to 100",0
same,"Plant response rating, Cupgrass, Woolly",[5]; [14],0
same,"Plant response rating, Cupgrass, Woolly","[5]; 250 g ai/ha, scale 0-100",5
same,"Cupgrass, Woolly plant response rating",[5],40
same,"Plant response rating, Foxtail, Giant","[6]; 62 g ai/ha, scale 0 to 100",0
same,"Plant response rating, Foxtail, Giant",[6]; [14],0
same,"Plant response rating, Foxtail, Giant","[6]; 250 g ai/ha, scale 0-100",10
same,"Foxtail, Giant plant response rating",[6],100
same,"Plant response rating, Goosegrass","[7]; 62 g ai/ha, scale 0 to 100",10
same,"Plant response rating, Goosegrass",[7]; [14],60
same,"Plant response rating, Goosegrass","[7]; 250 g ai/ha, scale 0-100",80
same,Goosegrass plant response rating,[7],100
same,"Plant response rating, Pigweed","[8]; 62 g ai/ha, scale 0 to 100",100
same,"Plant response rating, Pigweed",[8]; [14],100
same,"Plant response rating, Pigweed","[8]; 250 g ai/ha, scale 0-100",100
same,Pigweed plant response rating,[8],100
same,Ducksalad plant response rating,[9]; [16],55
same,Ducksalad plant response rating,"[9]; 125 g ai/ha, scale 0 to 100 (0 no effect, 100 complete control)",80
same,Ducksalad plant response rating,[9]; [17],80
same,"Plant response rating, Ducksalad",[9]; [18],85
CCn1nc(C(C)(C)C)cc1C(=O)Nc1cccc2c1CCN(C1CC1)C2=O [Compound 64],"Plant response rating, Foxtail, Giant",[1]; [10],30
same,"Plant response rating, Foxtail, Giant",[1]; [11],55
same,"Foxtail, Giant plant response rating",[1]; [19],40
same,"Foxtail, Giant plant response rating",[1]; [20],90
same,"Plant response rating, Pigweed",[2]; [10],65
same,"Plant response rating, Pigweed",[2]; [11],95
same,Pigweed plant response rating,[2]; [19],100
same,Pigweed plant response rating,[2]; [20],100
same,"Plant response rating (0 = no effect, 100 = complete control), Bermudagrass",[3]; 62 g ai/ha,0
same,"Plant response rating, Bermudagrass",[3]; [14],30
same,"Plant response rating, Bermudagrass",[3]; [21],85
same,Bermudagrass plant response rating,[3]; [15],90
same,"Plant response rating (0 = no effect, 100 = complete control), Crabgrass, Large",[4]; 62 g ai/ha,0
same,"Plant response rating, Crabgrass, Large",[4]; [14],40
same,"Plant response rating, Crabgrass, Large",[4]; [21],70
same,"Crabgrass, Large plant response rating",[4],90
same,"Plant response rating (0 = no effect, 100 = complete control), Cupgrass, Woolly",[5]; 62 g ai/ha,0
same,"Plant response rating, Cupgrass, Woolly",[5]; [14],0
same,"Plant response rating, Cupgrass, Woolly",[5]; [21],0
same,"Cupgrass, Woolly plant response rating",[5],10
same,"Plant response rating (0 = no effect, 100 = complete control), Foxtail, Giant",[6]; 62 g ai/ha,0
same,"Plant response rating, Foxtail, Giant",[6]; [14],0
same,"Plant response rating, Foxtail, Giant",[6]; [21],10
same,"Foxtail, Giant plant response rating",[6],80
same,"Plant response rating (0 = no effect, 100 = complete control), Goosegrass",[7]; 62 g ai/ha,0
same,"Plant response rating, Goosegrass",[7]; [14],10
same,Goosegrass plant response rating,[7],70
same,"Plant response rating (0 = no effect, 100 = complete control), Pigweed",[8]; 62 g ai/ha,30
same,"Plant response rating, Pigweed",[8]; [14],70
same,Pigweed plant response rating,[8],100
same,Ducksalad plant response rating,[9]; [16],0
same,Ducksalad plant response rating,[9]; [22],10
same,Ducksalad plant response rating,[9]; [17],25
same,"Plant response rating, Ducksalad",[9]; [18],40
CCOC(=O)c1cccc(NC(=O)c2cc(C(C)(C)C)nn2CC)c1C [Compound 88],"Foxtail, Giant plant response rating",[1]; [10],20
same,"Plant response rating, Foxtail, Giant",[1]; [11],60
same,"Foxtail, Giant plant response rating",[1]; [19],55
same,"Foxtail, Giant plant response rating",[1]; [20],90
same,Pigweed plant response rating,[2]; [10],90
same,"Plant response rating, Pigweed",[2]; [11],100
same,Pigweed plant response rating,[2]; [19],90
same,Pigweed plant response rating,[2]; [20],100
same,"Plant response rating (0 = no effect, 100 = complete control), Bermudagrass",[3]; 62 g ai/ha,90
same,"Plant response rating, Bermudagrass",[3]; [14],95
same,"Plant response rating, Bermudagrass",[3]; [21],95
same,Bermudagrass plant response rating,[3]; [15],95
same,"Plant response rating (0 = no effect, 100 = complete control), Crabgrass, Large",[4]; 62 g ai/ha,90
same,"Plant response rating, Crabgrass, Large",[4]; [14],95
same,"Plant response rating, Crabgrass, Large",[4]; [21],95
same,"Crabgrass, Large plant response rating",[4],100
same,"Plant response rating (0 = no effect, 100 = complete control), Cupgrass, Woolly",[5]; 62 g ai/ha,20
same,"Plant response rating, Cupgrass, Woolly",[5]; [14],30
same,"Plant response rating, Cupgrass, Woolly",[5]; [21],80
same,"Cupgrass, Woolly plant response rating",[5],90
same,"Plant response rating (0 = no effect, 100 = complete control), Foxtail, Giant",[6]; 62 g ai/ha,0
same,"Plant response rating, Foxtail, Giant",[6]; [14],50
same,"Plant response rating, Foxtail, Giant",[6]; [21],85
same,"Foxtail, Giant plant response rating",[6],100
same,"Plant response rating (0 = no effect, 100 = complete control), Goosegrass",[7]; 62 g ai/ha,60
same,"Plant response rating, Goosegrass",[7]; [14],90
same,Goosegrass plant response rating,[7],100
same,"Plant response rating (0 = no effect, 100 = complete control), Pigweed",[8]; 62 g ai/ha,100
same,"Plant response rating, Pigweed",[8]; [14],100
same,Pigweed plant response rating,[8],100
same,Ducksalad plant response rating,[9]; [16],0
same,Ducksalad plant response rating,[9]; [22],15
same,Ducksalad plant response rating,[9]; [17],40
same,"Plant response rating, Ducksalad",[9]; [18],75
CCCN1CCc2c(NC(=O)c3cc(C(C)(C)C)nn3CC)cccc2C1=O [Compound 65],"Plant response rating, Foxtail, Giant",[1]; [10],30
same,"Plant response rating, Foxtail, Giant",[1]; [11],55
same,"Foxtail, Giant plant response rating",[1]; [19],40
same,"Foxtail, Giant plant response rating",[1]; [20],80
same,"Plant response rating, Pigweed",[2]; [10],70
same,"Plant response rating, Pigweed",[2]; [11],70
same,Pigweed plant response rating,[2]; [19],100
same,Pigweed plant response rating,[2]; [20],100
same,"Plant response rating (0 = no effect, 100 = complete control), Bermudagrass",[3]; 62 g ai/ha,40
same,"Plant response rating, Bermudagrass",[3]; [14],85
same,"Plant response rating, Bermudagrass",[3]; [21],95
same,Bermudagrass plant response rating,[3]; [15],95
same,"Plant response rating (0 = no effect, 100 = complete control), Crabgrass, Large",[4]; 62 g ai/ha,50
same,"Plant response rating, Crabgrass, Large",[4]; [14],50
same,"Plant response rating, Crabgrass, Large",[4]; [21],80
same,"Crabgrass, Large plant response rating",[4],100
same,"Plant response rating (0 = no effect, 100 = complete control), Cupgrass, Woolly",[5]; 62 g ai/ha,0
same,"Plant response rating, Cupgrass, Woolly",[5]; [14],0
same,"Plant response rating, Cupgrass, Woolly",[5]; [21],10
same,"Cupgrass, Woolly plant response rating",[5],10
same,"Plant response rating (0 = no effect, 100 = complete control), Foxtail, Giant",[6]; 62 g ai/ha,0
same,"Plant response rating, Foxtail, Giant",[6]; [14],0
same,"Plant response rating, Foxtail, Giant",[6]; [21],20
same,"Foxtail, Giant plant response rating",[6],60
same,"Plant response rating (0 = no effect, 100 = complete control), Goosegrass",[7]; 62 g ai/ha,0
same,"Plant response rating, Goosegrass",[7]; [14],30
same,Goosegrass plant response rating,[7],80
same,"Plant response rating (0 = no effect, 100 = complete control), Pigweed",[8]; 62 g ai/ha,70
same,"Plant response rating, Pigweed",[8]; [14],100
same,Pigweed plant response rating,[8],100
same,Ducksalad plant response rating,[9]; [16],15
same,Ducksalad plant response rating,[9]; [22],45
same,Ducksalad plant response rating,[9]; [17],75
same,"Plant response rating, Ducksalad",[9]; [18],85
